Experimental data reported in EP4389156A1, “RA[…] LIGAND COMPOUNDS AND PRECURSORS THEREOF” (Technische Universität München, priority 2022, dated 2024).
Where “and” joins values, the source holds several entries; their conditions need not be identical. Equal values may be shown once.

Key:
[1] = Lipophilicity (logD7.4), shake-flask method; format: physicochemical; settings: n-octanol/PBS (pH 7.4), n = 8, mean ± SD
Method: The lipophilicity of ^99mTc-labeled PSMA ligands, expressed as distribution coefficient (logD7.4), was determined using the shake-flask method. A solution of approximately 1 MBq of radioligand in 1 mL of a 1:1 mixture of PBS (pH = 7.4) and n-octanol (n = 8) was vortexed vigorously for 3 min. After centrifugation at 9000 rpm for 5 min aliquots of both phases (200 µL n-octanol, 50 µL PBS) were collected and the activity was quantified in a γ-counter. logD7.4 values were calculated as decadic logarithm of the activity concentration ratio between the n-octanol phase and the aqueous phase. Data are given as mean ± standard deviation (SD). Binding to human plasma was determined by incubation of radioligands in human plasma (2 nM concentration, 37 °C for 30 min) and subsequent ultrafiltration (250 µL aliquots, 3200 rpm, 40 min) in Centrifree® ultrafiltration devices (Merck Millipore, Cork, Ireland). The fraction bound to human plasma proteins was calculated as the ratio of unfiltered activity and the total activity in the ultrafiltration device. Measurements were performed in three independent experiments, each with two replicates (n = 6, data are given as mean ± SD). All values were corrected for non-specific binding (control experiments in PBS).

[2] = target: T1, human serum albumin (HSA) (Homo sapiens, UniProt P02768); test: HSA binding by high performance affinity chromatography (HPAC); format: in vitro ADME; settings: uncomplexed compounds, n = 1
T1 construct: purchased Daicel, Tokyo, Japan H13H-2433
T1 sequence (P02768 25-609): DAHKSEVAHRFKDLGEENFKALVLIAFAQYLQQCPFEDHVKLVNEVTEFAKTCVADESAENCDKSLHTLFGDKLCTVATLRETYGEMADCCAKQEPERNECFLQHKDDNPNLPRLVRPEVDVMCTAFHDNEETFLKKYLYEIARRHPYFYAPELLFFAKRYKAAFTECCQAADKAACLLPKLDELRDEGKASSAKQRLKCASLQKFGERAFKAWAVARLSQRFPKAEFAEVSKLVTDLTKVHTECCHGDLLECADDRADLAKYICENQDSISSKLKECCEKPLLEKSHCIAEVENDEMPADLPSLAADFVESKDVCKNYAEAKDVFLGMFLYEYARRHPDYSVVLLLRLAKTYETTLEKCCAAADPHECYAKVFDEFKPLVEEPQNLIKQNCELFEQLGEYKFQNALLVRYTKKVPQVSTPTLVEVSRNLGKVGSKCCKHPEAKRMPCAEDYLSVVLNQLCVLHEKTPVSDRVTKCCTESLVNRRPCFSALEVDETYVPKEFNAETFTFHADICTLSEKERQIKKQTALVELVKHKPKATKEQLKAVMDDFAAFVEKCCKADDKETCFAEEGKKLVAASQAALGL
Method: HSA binding of the uncomplexed PSMA ligands was determined according to a previously published procedure via HPLC (Valko, K.; Nunhuck, S.; Bevan, C.; Abraham, M. H.; Reynolds, D. P., Fast gradient HPLC method to determine compounds binding to human serum albumin. Relationships with octanol/water and immobilized artificial membrane lipophilicity. J Pharm Sci. 2003, 92, 2236-2248). A Chiralpak HSA column (50 × 3 mm, 5 µm, H13H-2433, Daicel, Tokyo, Japan) was used at a constant flow rate of 0.5 mL/min at rt. Mobile phase A was a freshly prepared 50 mM aqueous solution of NH4OAc (pH 6.9) and mobile phase B was isopropanol (HPLC grade, VWR). The applied gradient for all experiments was 100% A (0 to 3 min), followed by 80% A (3 to 40 min). Prior to the experiment, the column was calibrated using nine reference substances with a HSA binding, known from literature, in the range of 13 to 99% (Valko, K.; Nunhuck, S.; Bevan, C.; Abraham, M. H.; Reynolds, D. P., J Pharm Sci. 2003, 92, 2236-2248; Yamazaki, K.; Kanaoka, M., Computational prediction of the plasma protein-binding percent of diverse pharmaceutical compounds. J Pharm Sci. 2004, 93, 1480-1494). All substances, including the examined PSMA ligands, were dissolved in a 1:1 mixture (v/v) of isopropanol and a 50 mM aqueous solution of NH4OAc (pH 6.9) with a final concentration of 0.5 mg/mL. Non-linear regression was established with the OriginPro 2016G software (Northampton, United States).

[3] = target: T2, PSMA (Homo sapiens, UniProt Q04609); test: Competitive binding study, inverse IC50 (99mTc-radioligand versus increasing IBA-KuE); settings: inverse IC50: IBA-KuE competes against 99mTc-radioligand (0.2 nM/well); higher values = higher affinity; 1 h, 4°C, n = 3, mean ± SD; read-out: IC50, inv.
T2 construct: endogenous in cells; printed for the internalization assay of the same paragraph
T2 sequence (Q04609 whole entry): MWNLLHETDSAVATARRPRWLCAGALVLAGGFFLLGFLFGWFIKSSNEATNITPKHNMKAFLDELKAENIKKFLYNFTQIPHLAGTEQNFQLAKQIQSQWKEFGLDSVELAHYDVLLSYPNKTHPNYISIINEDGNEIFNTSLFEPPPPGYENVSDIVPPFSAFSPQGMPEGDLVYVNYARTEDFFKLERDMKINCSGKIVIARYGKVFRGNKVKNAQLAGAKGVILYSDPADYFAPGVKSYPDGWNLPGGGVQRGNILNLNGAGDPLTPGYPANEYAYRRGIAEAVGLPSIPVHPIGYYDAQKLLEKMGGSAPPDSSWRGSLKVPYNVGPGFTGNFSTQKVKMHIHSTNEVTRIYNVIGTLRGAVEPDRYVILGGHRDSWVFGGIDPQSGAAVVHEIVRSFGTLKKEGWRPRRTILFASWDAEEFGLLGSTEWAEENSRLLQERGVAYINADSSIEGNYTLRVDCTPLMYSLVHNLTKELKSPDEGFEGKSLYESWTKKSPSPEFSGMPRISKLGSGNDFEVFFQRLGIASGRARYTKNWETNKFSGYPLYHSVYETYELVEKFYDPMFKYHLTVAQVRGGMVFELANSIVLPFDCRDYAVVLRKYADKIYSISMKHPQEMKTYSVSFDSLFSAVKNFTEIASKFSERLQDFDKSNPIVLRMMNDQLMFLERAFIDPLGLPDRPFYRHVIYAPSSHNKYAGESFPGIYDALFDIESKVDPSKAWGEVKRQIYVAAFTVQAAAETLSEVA
Method: (§1) Competitive binding studies were carried out in analogy to a previously reported procedure. As a modification the non-radiolabeled standard competitor (((S)-1-carboxy-5-(4-(iodo)benzamido)pentyl)carbamoyl)-L-glutamic acid (IBA-KuE) was applied in increasing concentrations (10^-5 - 10^-11 M/well, n = 3 each) whereas the novel PSMA-binding compounds of interest were applied as ^99mTc-labeled radioligands (0.2 nM/well). In this inversed experimental approach, higher values correspond to higher affinities and are referred to as inverse IC50. Poly-L-lysine coated 24-well plates were used (n = 3). Data are given as mean ± SD. To determine the cellular uptake of the ^99mTc-labeled PSMA ligands into LNCaP cells by means of PSMA-mediated internalization at 1 h, a previously reported protocol was applied with assay concentrations of 1.0 nM and 0.2 nM for ^99mTc-labeled PSMA ligands and the reference compound [^125I]IBA-KuE, respectively. Data are corrected for non-specific binding and normalized to the specific internalization of the reference. Results are given as mean ± SD.

[4] = tested on: LNCaP cells; test: PSMA-mediated internalization into LNCaP cells; format: cell-based; settings: 1 h, 37°C, n = 3, as percentage of reference [125I]IBA-KuE, mean ± SD
Method: as §1

[5] = tested on: LNCaP tumor-bearing CB17-SCID mice; test: Biodistribution study in LNCaP tumor-bearing mice; format: in vivo; settings: 6 h p.i.; for uptake in % iD/g adrenals / uptake in % iD/g blood / uptake in % iD/g bone / uptake in % iD/g heart / uptake in % iD/g intestine / uptake in % iD/g kidney / uptake in % iD/g liver / uptake in % iD/g lung / uptake in % iD/g muscle / uptake in % iD/g pancreas / uptake in % iD/g parotid gland / uptake in % iD/g spleen / uptake in % iD/g stomach / uptake in % iD/g submandibular gland / uptake in % iD/g tumor: male LNCaP tumor-bearing CB17-SCID mice, mean; for uptake in % iD/g adrenals / uptake in % iD/g blood / uptake in % iD/g bone / uptake in % iD/g heart / uptake in % iD/g intestine / uptake in % iD/g kidney / uptake in % iD/g liver / uptake in % iD/g lung / uptake in % iD/g muscle / uptake in % iD/g pancreas / uptake in % iD/g parotid gland / uptake in % iD/g spleen / uptake in % iD/g stomach / uptake in % iD/g submandibular gland / uptake in % iD/g tumor / tumor-to-background ratio adrenals / tumor-to-background ratio blood / tumor-to-background ratio bone / tumor-to-background ratio heart / tumor-to-background ratio intestine / tumor-to-background ratio kidney / tumor-to-background ratio liver / tumor-to-background ratio lung / tumor-to-background ratio muscle / tumor-to-background ratio pancreas / tumor-to-background ratio parotid gland / tumor-to-background ratio spleen / tumor-to-background ratio stomach / tumor-to-background ratio submandibular gland: n = 4-5; for tumor-to-background ratio adrenals / tumor-to-background ratio blood / tumor-to-background ratio bone / tumor-to-background ratio heart / tumor-to-background ratio intestine / tumor-to-background ratio kidney / tumor-to-background ratio liver / tumor-to-background ratio lung / tumor-to-background ratio muscle / tumor-to-background ratio pancreas / tumor-to-background ratio parotid gland / tumor-to-background ratio spleen / tumor-to-background ratio stomach / tumor-to-background ratio submandibular gland: mean of ratios of individual animals; for Blood activity levels increased, as compared to [^99mTc]Tc-N4-PSMA-12: relative to [^99mTc]Tc-N4-PSMA-12
Method: All animal experiments were conducted in accordance with general animal welfare regulations in Germany (German animal protection act, in the edition of the announcement, dated May 18th, 2006, as amended by Article 280 of June 19th 2020, approval no. ROB-55.2-1-2532.Vet_02-18-109 by the General Administration of Upper Bavaria) and the institutional guidelines for the care and use of animals. Male CB17-SCID mice were purchased from Charles River (Sulzfeld, Germany) and arrived at the in-house animal facility to acclimate at least 1 week before the start of the experiment. Tumor xenografts were established by subcutaneous inoculation of LNCaP cells (approx. 2 × 10^7 cells in 200 µL of a 1:1 mixture of Cultrex BME (R&D Systems, Minneapolis, United States) and DMEM/Ham's F-12) onto the right shoulder of 6-8 weeks old male CB17-SCID mice. The animals were used for experiments when tumors had grown to a size of 5-10 mm in diameter. Criteria for the exclusion of animals from the experiment were weight loss higher than 20%, tumor size above 1.5 cm^3, ulceration of the tumor, respiratory distress or change of behavior. […] Neither randomisation nor blinding was applied in the allocation of the experiments. Quarterly health monitoring was performed according to the FELASA recommendations.
Biodistribution Studies. The ^99mTc-labeled radioligands (2.7 ± 0.7 MBq, 82 ± 20 pmol) were injected into a lateral tail vein of LNCaP-tumor bearing mice (n = 4-5) under isoflurane anesthesia. Animals were sacrificed at 6 h post injection (p.i.) by carbon dioxide inhalation and blood withdrawal via cardiac puncture. Blood and tissues of interest were collected, weighed and the activity measured in a γ-counter. Radioligand uptake is given in percent of the injected dose per gram of tissue (% ID/g) and results are presented as mean ± SD.
In line with the above, the biodistribution study of [^99mTc]Tc-N4-PSMA-21 was carried out with n = 5 animals ("data set I"). […] Kidney uptake of mouse #3 (36.17 %ID/g) exceeded the value obtained from the other four animals (4.58 ± 1.44 %ID/g, mean ± SD) 7.9-fold or by more than 20 standard deviations. In addition, tumor uptake of mouse #3 (21.92 %ID/g) exceeded the value obtained from the other four animals (11.02 ± 2.22 %ID/g, mean ± SD) 2.0-fold or by more than 4 standard deviations Due to the uncertainty whether these huge deviations arise from an experimental error or might be related to strongly deviating metabolic processes e.g. abnormal kidney function in mouse #3, the study primarily presents and discusses the data set based on the other four animals (n = 4, "data set II"). A thorough evaluation and comparison was, however, also carried out including mouse #3.

[6] = single outlier animal (mouse #3), excluded from data set II

Compound: CC(C)(C)[Si](O)(c1ccc(C(=O)NC[C@@H](NC(=O)[C@@H](Cc2ccccc2)NC(=O)C(CNCCN)CNCCN)C(=O)N[C@H](CCCCNC(=O)CCC(=O)NCCC[C@@H](NC(=O)CC[C@H](NC(=O)N[C@@H](CCC(=O)O)C(=O)O)C(=O)O)C(=O)O)C(=O)O)cc1)C(C)(C)C.[O]=[99Tc+]=[O] [[^99mTc]Tc-N4-PSMA-13]
- logD7.4 [1]: -2.78 ± 0.05
- HSA-binding (HPAC) (%) [2]: 89.9%
- inverse IC50 [3]: 9.98 ± 0.99 nM
- internalization (% IBA-KuE) [4]: 164 ± 15%
- uptake in % iD/g adrenals [5]: 0.5170 % ID/g
- uptake in % iD/g blood [5]: 0.0320 % ID/g
- uptake in % iD/g bone [5]: 0.0862 % ID/g
- uptake in % iD/g heart [5]: 0.0456 % ID/g
- uptake in % iD/g intestine [5]: 0.2661 % ID/g
- uptake in % iD/g kidney [5]: 6.6 ± 4.8 % ID/g and 6.5974 % ID/g
- uptake in % iD/g liver [5]: 0.2618 % ID/g
- uptake in % iD/g lung [5]: 0.1108 % ID/g
- uptake in % iD/g muscle [5]: 0.0127 % ID/g
- uptake in % iD/g pancreas [5]: 0.0270 % ID/g
- uptake in % iD/g parotid gland [5]: 0.1056 % ID/g
- uptake in % iD/g spleen [5]: 0.6314 % ID/g
- uptake in % iD/g stomach [5]: 0.1348 % ID/g
- uptake in % iD/g submandibular gland [5]: 0.3069 % ID/g
- uptake in % iD/g tumor [5]: 12.5347 % ID/g
- tumor-to-background ratio adrenals [5]: 24.50
- tumor-to-background ratio blood [5]: 409.29
- tumor-to-background ratio bone [5]: 142.94
- tumor-to-background ratio heart [5]: 276.38
- tumor-to-background ratio intestine [5]: 64.62
- tumor-to-background ratio kidney [5]: 2.45
- tumor-to-background ratio liver [5]: 50.17
- tumor-to-background ratio lung [5]: 113.30
- tumor-to-background ratio muscle [5]: 1013.12
- tumor-to-background ratio pancreas [5]: 496.73
- tumor-to-background ratio parotid gland [5]: 119.35
- tumor-to-background ratio spleen [5]: 20.57
- tumor-to-background ratio stomach [5]: 101.82
- tumor-to-background ratio submandibular gland [5]: 41.60
- Blood activity levels increased, as compared to [^99mTc]Tc-N4-PSMA-12 [5]: 1.6 fold

Compound: CC(C)(C)[Si](O)(c1ccc(C(=O)NC[C@@H](NC(=O)[C@@H](Cc2ccc(N)cc2)NC(=O)C(CNCCN)CNCCN)C(=O)N[C@H](CCCCNC(=O)CCC(=O)NCCC[C@@H](NC(=O)CC[C@H](NC(=O)N[C@@H](CCC(=O)O)C(=O)O)C(=O)O)C(=O)O)C(=O)O)cc1)C(C)(C)C.[O]=[99Tc+]=[O] [[^99mTc]Tc-N4-PSMA-21]
- logD7.4 [1]: -3.13 ± 0.05
- HSA-binding (HPAC) (%) [2]: 57.3%
- inverse IC50 [3]: 11.1 ± 1.42 nM
- internalization (% IBA-KuE) [4]: 180 ± 4%
- uptake in % iD/g adrenals [5]: 0.5759 % ID/g
- uptake in % iD/g blood [5]: 0.1074 % ID/g
- uptake in % iD/g bone [5]: 0.0828 % ID/g
- uptake in % iD/g heart [5]: 0.0568 % ID/g
- uptake in % iD/g intestine [5]: 1.1034 % ID/g
- uptake in % iD/g kidney [5]: 4.58 ± 1.44 % ID/g and 4.6 ± 1.4 % ID/g and 4.5811 % ID/g
- uptake in % iD/g liver [5]: 0.5752 % ID/g
- uptake in % iD/g lung [5]: 0.1250 % ID/g
- uptake in % iD/g muscle [5]: 0.0153 % ID/g
- uptake in % iD/g pancreas [5]: 0.0335 % ID/g
- uptake in % iD/g parotid gland [5]: 0.1105 % ID/g
- uptake in % iD/g spleen [5]: 1.3064 % ID/g
- uptake in % iD/g stomach [5]: 0.1458 % ID/g
- uptake in % iD/g submandibular gland [5]: 0.3009 % ID/g
- uptake in % iD/g tumor [5]: 11.02 ± 2.22 % ID/g and 11.0155 % ID/g
- tumor-to-background ratio adrenals [5]: 19.85
- tumor-to-background ratio blood [5]: 125.55
- tumor-to-background ratio bone [5]: 207.38
- tumor-to-background ratio heart [5]: 201.50
- tumor-to-background ratio intestine [5]: 52.29
- tumor-to-background ratio kidney [5]: 2.57
- tumor-to-background ratio liver [5]: 23.75
- tumor-to-background ratio lung [5]: 99.35
- tumor-to-background ratio muscle [5]: 736.44
- tumor-to-background ratio pancreas [5]: 350.74
- tumor-to-background ratio parotid gland [5]: 101.59
- tumor-to-background ratio spleen [5]: 10.32
- tumor-to-background ratio stomach [5]: 114.49
- tumor-to-background ratio submandibular gland [5]: 50.80
- Blood activity levels increased, as compared to [^99mTc]Tc-N4-PSMA-12 [5]: 5.4 fold
- Kidney uptake of mouse #3 [5, 6]: 36.17 %ID/g
- tumor uptake of mouse #3 [5, 6]: 21.92 %ID/g
